Experimental data from PubChem BioAssay AID179 (DTP/NCI, 2004).
Active and inactive are the calls of the source.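 Rule for the calls: active = compounds giving half or more protection of infected cells from virus-caused growth loss, again on retest; inactive = the rest.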 Where a SMILES comes first, the peptide text is derived from it.

System: CEM cells HIV-1 protection, formazan growth assay
Experiment: NCI AIDS Antiviral Assay
Settings: for IC50: measured here: growth of uninfected CEM cells
Summary of the method: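 CEM (human) cells, HIV-1 infected vs uninfected, 5-point dosing, formazan growth read-out. Retest threshold 50% protection.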

Structure (SMILES) | EC50 | IC50 | outcome
O=C1CC2CCCC(C1)S2=O (stereo not given) | > 1450 µM | > 1450 µM | –
CCOC(=O)c1cc(C(=O)c2ccccc2)n2nc(-c3ccc(Cl)cc3)ccc12 | > 50.1 µM | > 50.1 µM | –
O=c1cn[nH]c2c(Br)cccc12 | > 479 µM | 275 µM | –
CCCNC(=O)Sc1ccccc1C(=O)N[C@@H](C)C(N)=O | > 4.17 µM | 1.41 µM | –
O=C(O)c1ccc(C(=O)c2ccccc2)c(C(=O)O)c1 | > 200 µM | > 200 µM | –
Cc1c(N)c(C#N)c2n(C)c3ncccc3n2c1=O | > 200 µM | > 200 µM | –
COC1OC2COC(c3ccccc3)OC2C(S)C1S (stereo not given) | > 200 µM | 102 µM | –
C=CCC1(O)CC(n2cc(C)c(=O)[nH]c2=O)OC1CO[Si](C)(C)C(C)(C)C (stereo not given) | > 200 µM | 91.2 µM | –
CCCCNC1CCCCC[C@H]1O (stereo not given in full) | > 1120 µM | > 1120 µM | –
CCNCCNC(=O)c1ccc(I)cc1 | – | – | inactive
NCCCNCc1c2ccccc2c(CNCCCN)c2ccccc12 | > 120 µM | 1.95 µM | –
Cn1ncc2c(=O)[nH]cnc21 | > 316 µM | > 316 µM | –
CSc1nc(NC2OCC(O)C(O)C2O)cc(=O)[nH]1 (stereo not given) | – | – | inactive
COc1ccc(NC(=S)NN=C(C)c2cccc(C(C)=NNC(=S)Nc3ccc(OC)cc3)n2)cc1 | > 200 µM | 55 µM | –
O=C(CCn1ccnc1)N1CCN(c2ccccc2)CC1 | > 871 µM | 646 µM | –
CC(=O)OCC1OC(n2c(=S)n(-c3ccccc3)c(=O)c3cc(Br)cc(Br)c32)C(OC(C)=O)C(OC(C)=O)C1OC(C)=O (stereo not given) | > 18.2 µM | > 18.2 µM | –
CC(C)(C)C(=O)/C=C/c1ccc(Oc2ccccc2)cc1 | > 25.7 µM | > 25.7 µM | –
Cc1ccc(S(=O)(=O)OC2CCN(C)CC2)cc1 | > 200 µM | > 200 µM | –
C[C@@H](O)CCC(=O)c1ccoc1 | > 1480 µM | > 1480 µM | –
O=C(OCCN=c1c2ccccc2ccc2ccccc12)c1ccc([N+](=O)[O-])cc1 | > 200 µM | > 200 µM | –
O=S(=O)(O)SCCNCCCCC1CCCCC1 | > 200 µM | 10.2 µM | –
COc1cc2cc(C(=O)N3CC(CCl)c4ccc([N+](C)(C)Cc5ccc([N+](=O)[O-])cc5)cc43)[nH]c2c(OC)c1OC (stereo not given) | > 200 µM | 7.76 µM | –

Structure (SMILES) | EC50 | IC50 | outcome
CCOC(=O)C(NC(=O)CC(C)C)(Nc1ccc(S(=O)(=O)Nc2nc(C)cc(C)n2)cc1)C(F)(F)F (stereo not given) | > 200 µM | > 200 µM | –
COc1ccc(CNc2nc3ccccc3nc2-c2cccs2)cc1OC | > 19.1 µM | 17 µM | –
C=CC(C)(C)[C@@]12CC3C(=O)N[C@@H](CC(C)C)C(=O)N3[C@@H]1N(C(C)=O)c1ccccc12 (stereo not given in full) | > 30.2 µM | > 30.2 µM | –
[Cl][Tb]([Cl])[Cl] | – | – | inactive
NC(N)=NS(=O)(=O)c1ccc(Nc2c3ccccc3nc3ccc(C(=O)Nc4ccc(S(N)(=O)=O)cc4)cc23)cc1 | > 200 µM | > 200 µM | –
CO/N=C/c1cc(NC(=S)c2ccoc2C)ccc1Cl | 0.0575 µM | 29.5 µM | –
CC1(C)CC23C(=O)N(c4ccccc4)C(=Nc4ccccc4)NC2=CC(C#N)=C(C#N)C3O1 (stereo not given) | > 12 µM | > 12 µM | –
C=C1CN(S(=O)(=O)c2ccc(C)cc2)CCCN(Cc2ccncc2)CCCN(S(=O)(=O)c2ccc(C)cc2)C1 | > 200 µM | 4.37 µM | –
CCOC(=O)C(NC(=O)c1cccc(Cl)c1)(N1CCN(c2cc3c(cc2F)c(=O)c(C(=O)O)cn3C2CC2)CC1)C(F)(F)F (stereo not given) | > 20 µM | 10.2 µM | –
Nc1ccc2cc3[nH]c4cc(N)ccc4c3nc2c1 | > 1.35 µM | 0.339 µM | –
CCOC(=O)c1cn(C)c2c1C(=O)C(C(=O)OCC)CC(=O)N2 (stereo not given) | > 288 µM | 178 µM | –
CN1C(C)(c2ccccc2)c2ccccc2S1(=O)=O (stereo not given) | 3.89 µM | 85.1 µM | –
CCCCN(CCCC)C(=O)C(=O)C(C(=O)c1ccc(OC)cc1)c1ccc(OC)cc1 (stereo not given) | > 11.7 µM | > 11.7 µM | –
CC(=O)Nc1ccc(/C=C(\C#N)c2ccccc2)cc1 | > 200 µM | > 200 µM | –
Nc1ccc2[se]nc3c2c1C(=O)c1ccccc1-3 | > 6.76 µM | > 6.76 µM | –
CC1C2CC(CC(=O)N2)C1(C)C (stereo not given) | > 1480 µM | 759 µM | –
CCc1n[nH]c(=O)n1/N=C/c1ccccc1O | > 200 µM | > 200 µM | –
CC(C)(C)c1ccc(Oc2ccc(C#N)c(C#N)c2)c(C(C)(C)C)c1 | > 77.6 µM | > 77.6 µM | –
O=S(=O)([O-])[O-].[Fe+2].c1ccc(/C(=N\Nc2ccccn2)c2ccccn2)cc1 | – | – | inactive
C=C1C(=O)OC2C1CC[C@H](C)C13OC(=O)CC1[C@@]23C (stereo not given in full) | – | – | inactive
COC(=O)/C=C/c1ccc2c(c1)CC1(C2)Cc2cc3c(cc2C1=O)CCC3 (stereo not given) | > 100 µM | > 100 µM | –
CCC(=N\N=C(N)N)/C(CC)=N/N=C(N)N | > 562 µM | > 562 µM | –

Structure (SMILES) | EC50 | IC50 | outcome
Cn1c(=O)c2c(n(C)c1=O)n1c(=O)c3ccccc3nc1n2C | > 200 µM | > 200 µM | –
CC(=Nc1ccccc1S)c1c(O)ccc2c(C)cc(=O)oc12 | > 11.5 µM | > 11.5 µM | –
Cn1c2c(c3ccccc31)CCN(CCN1CCN(c3ccccc3)CC1)C2=O | – | – | inactive
O=C1NCC2(CCN(CC3COc4ccccc4O3)CC2)N1c1ccccc1 (stereo not given) | > 200 µM | > 200 µM | –
Cc1cc(C)c(C2=NOC(c3ccccc3)(c3cc(=O)n(-c4ccccc4)s3)O2)c(C)c1 (stereo not given) | 8.51 µM | 38 µM | –
O=C1CS(=O)(=O)CN1N1CS(=O)(=O)CC1=O | > 200 µM | 110 µM | –
c1ccc2c(c1)n1c(N3CCCC3)[n+]3ccccc3c1c1c3cccc[n+]3c(N3CCCC3)n21 | 57.5 µM | > 100 µM | –
CC(=O)NC(CO)C(=O)NC(Cc1ccc(O)cc1)C(=O)NCC(N)=O (stereo not drawn) (Ac-Ser-Tyr-Gly-NH2; configuration not given here) | > 200 µM | > 200 µM | –
C=C(Nc1ccc([N+](=O)[O-])cc1[N+](=O)[O-])c1c/c(=N\NC(N)=S)c2ccccc2o1 | > 117 µM | > 117 µM | –
CCOC(=O)NC1=NCCS1 | – | – | inactive
NC1=C(O)/C(=N/NS(=O)(=O)c2ccccc2)C(c2ccc3c(c2)OCO3)O1 (stereo not given) | > 3.72 µM | > 3.72 µM | –
O=C(/C=C/c1ccc(O)c(O)c1)OC1C[C@@](O)(C(=O)O)C[C@@H](O)[C@H]1OC(=O)/C=C/c1ccc(O)c(O)c1 (stereo not given in full) | > 347 µM | 155 µM | –
CCOC1N=C(c2ccccc2)c2cc(Cl)ccc2NC1=O (stereo not given) | > 22.9 µM | > 22.9 µM | –
Cn1c2ccccc2c2nc3ccccc3c(Cl)c21 | > 200 µM | 135 µM | –
COc1ccc(C2NC3=C(CCCC3)C3(C#N)C(=O)N=C(N)C23C#N)cc1 (stereo not given) | > 200 µM | 107 µM | –
C[C@]1(O)CC[C@H]2[C@@H]3CC[C@H]4C[C@H](O)[C@@H]5C[C@]4(CO5)[C@H]3CC[C@@]21C | > 110 µM | > 110 µM | –
O=C(O/N=C1/CCC/C1=C\c1ccccc1)c1ccc(Cl)cc1 | – | – | inactive
COC(=O)C12CCC(C(=O)OC)(CC1)n1c(=O)n(-c3ccccc3)c(=O)n12 | > 200 µM | > 200 µM | –
COc1ccc(/C=C/C(=O)CC(=O)/C=C/c2ccc(OC)cc2)cc1 | > 200 µM | > 200 µM | –
CC(C)C(OC(=O)c1ccc(NCc2cc(O)ccc2O)cc1)C(C)C | > 200 µM | 1.41 µM | –
